Measured values taken from patent US20110319392A1, “Thiazole Sulfonamide And Oxazole Sulfonamide Kinase Inhibitors” (priority 2009, published 2011).

What was measured:
[1] = target: T1, EGFR (Homo sapiens, UniProt P00533); assay: EGFR substrate phosphorylation assay (HTRF); assay type: biochemical
T1 construct: made in house; host or cells: baculovirus expression system
Procedure, shortened: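 Baculovirus-expressed EGFR (0.8 nM) or ErbB2 (10 nM) in enzyme mix, preincubated 1 h at 20 °C with compound (0.00027–47.6 μM final), then 90 min at 20 °C with substrate mix of 20 μM ATP, 0.8 uM biotinylated Peptide C, MnCl2, MOPS pH 7.5. Phosphotyrosine by HTRF; pIC50 reported.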

[2] = system: HN5 tumor cells; assay: Cell growth inhibition assay (CellTiter-Glo), HN5; assay type: cell-based, Human; conditions: Homo sapiens, 72 h; 3 days incubation
Procedure, shortened: (§1)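 Readout was CellTiter-Glo luminescence (total ATP, surrogate for cell number) after 3-day exposure at 37° C, 5% CO2 to 1:3 serial compound dilutions in 0.2% final DMSO. Seeding was 500 cells/well; IC50 derived by 4-parameter fit relative to vehicle-treated wells.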

[3] = system: SK-MEL-28 tumor cells; assay: Cell growth inhibition assay (CellTiter-Glo), SK-MEL-28; assay type: cell-based, Human; conditions: Homo sapiens, SK-MEL-28, 72 h; 3 days incubation
Procedure, shortened: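 Cells plated at 500 cells/well in their growth media, dosed next day with nine-step 1:3 compound dilutions (final DMSO 0.2%), then incubated 3 days at 37° C, 5% CO2. Total ATP read by CellTiter-Glo luminescence as a surrogate for cell number; IC50 interpolated from 4-parameter fit versus DMSO controls.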

[4] = system: HT-29 tumor cells; assay: Cell growth inhibition assay (CellTiter-Glo), HT-29; assay type: cell-based, Human; conditions: Homo sapiens
Procedure, shortened: as §1

T1 sequence (P00533 25-1210): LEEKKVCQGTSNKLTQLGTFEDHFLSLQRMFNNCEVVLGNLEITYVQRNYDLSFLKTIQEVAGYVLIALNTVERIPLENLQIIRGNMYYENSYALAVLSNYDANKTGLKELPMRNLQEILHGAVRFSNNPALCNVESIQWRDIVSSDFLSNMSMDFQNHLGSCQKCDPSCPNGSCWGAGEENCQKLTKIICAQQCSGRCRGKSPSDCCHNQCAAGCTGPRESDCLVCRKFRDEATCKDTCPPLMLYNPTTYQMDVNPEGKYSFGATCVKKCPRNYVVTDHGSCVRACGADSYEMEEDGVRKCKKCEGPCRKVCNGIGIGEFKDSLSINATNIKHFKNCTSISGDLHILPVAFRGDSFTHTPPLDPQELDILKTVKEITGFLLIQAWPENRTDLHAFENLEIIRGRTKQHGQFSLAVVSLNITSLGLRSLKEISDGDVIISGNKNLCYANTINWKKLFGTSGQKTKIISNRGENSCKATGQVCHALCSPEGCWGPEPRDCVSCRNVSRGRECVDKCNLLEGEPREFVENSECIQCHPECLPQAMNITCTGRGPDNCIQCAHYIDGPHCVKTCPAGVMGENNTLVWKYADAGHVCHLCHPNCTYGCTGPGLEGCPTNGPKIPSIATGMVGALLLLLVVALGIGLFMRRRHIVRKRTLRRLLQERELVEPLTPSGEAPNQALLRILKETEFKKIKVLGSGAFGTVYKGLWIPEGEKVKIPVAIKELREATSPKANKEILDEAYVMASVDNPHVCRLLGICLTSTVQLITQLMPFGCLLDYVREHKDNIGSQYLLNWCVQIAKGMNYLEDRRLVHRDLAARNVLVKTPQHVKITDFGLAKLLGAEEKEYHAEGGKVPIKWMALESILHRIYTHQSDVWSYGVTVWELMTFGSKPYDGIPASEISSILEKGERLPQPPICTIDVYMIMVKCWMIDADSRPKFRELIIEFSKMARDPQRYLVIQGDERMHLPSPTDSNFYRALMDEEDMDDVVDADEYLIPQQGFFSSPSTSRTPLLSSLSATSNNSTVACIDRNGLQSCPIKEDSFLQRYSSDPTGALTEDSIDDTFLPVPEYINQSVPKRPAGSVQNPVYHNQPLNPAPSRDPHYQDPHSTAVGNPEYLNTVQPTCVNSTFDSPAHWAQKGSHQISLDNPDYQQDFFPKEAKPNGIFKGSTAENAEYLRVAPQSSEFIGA

Row | Structure (SMILES) | IC50 [1] [nM] | IC50 [2] [nM] | IC50 [3] [nM] | IC50 [4] [nM]
1 | CS(=O)(=O)c1cccc(Nc2nccc(-c3sc(N4CCOCC4)nc3-c3cccc(NS(=O)(=O)c4c(F)cccc4F)c3Cl)n2)c1 [Example 145] | > 1000 | > 1000 | < 100 | < 100
2 | O=S(=O)(Nc1cccc(-c2nc(N3CCOCC3)sc2-c2ccnc(Nc3ccc(N4CCOCC4)nc3)n2)c1Cl)c1c(F)cccc1F [Example 146] | > 1000 | < 100 | < 100 | < 100
3 | O=S(=O)(Nc1cccc(-c2nc(N3CCCCC3)sc2-c2ccnc(Nc3ccc(N4CCOCC4)nc3)n2)c1)c1c(F)cccc1F [Example 151] | > 1000 | 100 to 1000 | < 100 | < 100
4 | O=S1(=O)Cc2ccc(Nc3nccc(-c4sc(N5CCOCC5)nc4-c4cccc(NS(=O)(=O)c5c(F)cccc5F)c4F)n3)cc2C1 [Example 155] | 100 to 1000 | 100 to 1000 | < 100 | < 100
5 | COc1ccc(S(C)(=O)=O)cc1Nc1nccc(-c2sc(N3CCOCC3)nc2-c2cccc(NS(=O)(=O)c3c(F)cccc3F)c2F)n1 [Example 157] | > 1000 | > 1000 | < 100 | < 100
6 | Cc1cc(Nc2nccc(-c3sc(C(C)(C)C)nc3-c3cccc(NS(=O)(=O)c4c(F)cccc4F)c3F)n2)ccn1 [Example 159] | > 1000 | < 100 | < 100 | < 100
7 | CS(=O)(=O)CCN1CCN(c2ccc(Nc3nccc(-c4oc(N5CCCC5)nc4-c4cccc(NS(=O)(=O)c5c(F)cccc5F)c4F)n3)cc2F)CC1 [Example 167] | 100 to 1000 | 100 to 1000 | < 100 | < 100

Results, then the compound that gave them:

Row | IC50 [1] [nM] | IC50 [2] [nM] | IC50 [3] [nM] | IC50 [4] [nM] | Structure (SMILES)
8 | 100 to 1000 | 100 to 1000 | < 100 | < 100 | CCNc1nc(-c2cccc(NS(=O)(=O)c3c(F)cccc3F)c2)c(-c2ccnc(Nc3ccc(N4CCOCC4)nc3)n2)s1 [Example 152]
9 | 100 to 1000 | 100 to 1000 | < 100 | 100 to 1000 | O=S(=O)(Nc1cccc(-c2ncsc2-c2ccnc(Nc3ccc(N4CCOCC4)nc3)n2)c1)c1c(F)cccc1F [Example 162]
10 | 100 to 1000 | 100 to 1000 | < 100 | 100 to 1000 | CCNc1nc(-c2ccc(F)c(NS(=O)(=O)c3c(F)cccc3F)c2)c(-c2ccnc(Nc3ccc(N4CCOCC4)nc3)n2)s1 [Example 166]
